Data: patent US6605427B2, “Assay for detection of viral fusion inhibitors” (priority 2000, dated 2003)
Where two headings read alike, the source gives them in different places.

Biological target: HIV-1 gp41 core structure (six-helix bundle) formation (Human immunodeficiency virus type 1 group M subtype B, UniProt P04578)
Protocol: Two days following transfection, intact 293T cells transiently expressing the HIV-1 HXB2 envelope are incubated in the presence of the test compound. At the end of 1 h, 2 μg of soluble CD4 (sCD4) or a cell line expressing CD4 is added. At the end of an additional 1 h, the monoclonal antibody against the six-helix bundle structure is added at a concentration of 10 μg/ml and the mixture is allowed to incubate at 25° C. for 3 hr. Following this incubation the cells are washed 4 times with PBS and lysed with 1 ml lysis buffer (1% Triton X-100, 150 mM NaCl, and 50 mM Tris-Cl pH 7.4). […] Immunoprecipitated complexes are analyzed by 10% SDS-Page gel, transferred to nitrocellulose and immunoblotted with the anti-gp41 monoclonal antibody Chessie 8 (obtained from NIH AIDS Research and Reference Reagent Program) and detected by chemiluminescence and autoradiography.
The ability of the test compound to disrupt these critical conformational changes is assessed by characterizing the formation of the gp41 core structure. […]
The assay is a modified form of an immunoprecipitation (IP) assay and involves incubating the test compound with intact, virus-infected cells expressing the gp120/gp41 envelope complex on their surface. […] In these experiments the ability of a test compound to disrupt gp41 conformational changes was measured by determining its effect of core structure formation.

## C=C(C)[C@@H]1CC[C@]2(C(=O)O)CC[C@]3(C)[C@H](CC[C@@H]4[C@@]5(C)CC[C@H](OC(=O)CC(C)(C)C(=O)O)C(C)(C)[C@@H]5CC[C@]43C)[C@@H]12 [DSB, dimethylsuccinylbetulinic acid]
100 μg/ml DSB (FIG. 8 lane 3)
  amount of gp41 immunoprecipitated following sCD4 triggering: further reduced to a level nearly identical to that recovered in the absence of CD4 triggering
10 Mg/ml DSB (FIG. 8 lane 2) versus no test compound (lane 1)
  amount of gp41 immunoprecipitated following sCD4 triggering: significantly greater than the amount of gp41 immunoprecipitated in the presence of 10 Mg/ml DSB
